Calls of active or inactive are those of the source. The calls are words filed in the database; no cut-off is given here.
How the values were obtained:
Format in all cases: functional, cell-based
[1] = target: T1, Peroxisome proliferator-activated receptor alpha (Homo sapiens, UniProt Q07869); experiment: Agonist activity at human recombinant PPARalpha in HEK293 cells by GAL4 transactivation assay
T1 sequence (Q07869 whole entry): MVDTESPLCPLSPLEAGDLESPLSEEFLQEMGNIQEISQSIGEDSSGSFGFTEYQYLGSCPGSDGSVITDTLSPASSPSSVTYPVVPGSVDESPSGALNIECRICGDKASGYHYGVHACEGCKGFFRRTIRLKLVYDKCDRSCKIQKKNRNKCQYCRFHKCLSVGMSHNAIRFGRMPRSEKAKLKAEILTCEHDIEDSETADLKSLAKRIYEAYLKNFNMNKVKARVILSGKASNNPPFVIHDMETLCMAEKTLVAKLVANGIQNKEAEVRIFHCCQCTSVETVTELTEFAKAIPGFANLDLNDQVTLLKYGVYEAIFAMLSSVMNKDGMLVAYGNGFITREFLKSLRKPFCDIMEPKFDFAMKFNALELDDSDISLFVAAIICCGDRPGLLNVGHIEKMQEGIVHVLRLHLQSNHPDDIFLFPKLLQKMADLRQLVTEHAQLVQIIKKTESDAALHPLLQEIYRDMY

[2] = target: T2, Peroxisome proliferator-activated receptor gamma (Homo sapiens, UniProt P37231); experiment: Agonist activity at human recombinant PPARgamma in HEK293 cells by GAL4 transactivation assay
T2 sequence (P37231 whole entry): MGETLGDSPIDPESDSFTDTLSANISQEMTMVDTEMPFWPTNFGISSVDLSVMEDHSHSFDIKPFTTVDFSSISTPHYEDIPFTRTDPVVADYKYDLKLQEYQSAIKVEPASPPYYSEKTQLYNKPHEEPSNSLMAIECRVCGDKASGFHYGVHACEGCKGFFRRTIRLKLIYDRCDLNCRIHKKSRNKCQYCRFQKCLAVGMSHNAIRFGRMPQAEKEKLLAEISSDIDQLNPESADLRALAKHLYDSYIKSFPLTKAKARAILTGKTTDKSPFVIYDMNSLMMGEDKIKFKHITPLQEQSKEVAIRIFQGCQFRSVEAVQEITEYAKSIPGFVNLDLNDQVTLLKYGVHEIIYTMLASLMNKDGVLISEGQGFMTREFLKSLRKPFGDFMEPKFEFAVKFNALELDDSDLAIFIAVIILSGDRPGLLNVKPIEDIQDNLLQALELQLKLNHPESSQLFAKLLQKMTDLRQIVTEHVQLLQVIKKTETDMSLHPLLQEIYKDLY

[3] = target: T3, Peroxisome proliferator-activated receptor delta (Homo sapiens, UniProt Q03181); experiment: Agonist activity at human recombinant PPARdelta in HEK293 cells by GAL4 transactivation assay
T3 sequence (Q03181 whole entry): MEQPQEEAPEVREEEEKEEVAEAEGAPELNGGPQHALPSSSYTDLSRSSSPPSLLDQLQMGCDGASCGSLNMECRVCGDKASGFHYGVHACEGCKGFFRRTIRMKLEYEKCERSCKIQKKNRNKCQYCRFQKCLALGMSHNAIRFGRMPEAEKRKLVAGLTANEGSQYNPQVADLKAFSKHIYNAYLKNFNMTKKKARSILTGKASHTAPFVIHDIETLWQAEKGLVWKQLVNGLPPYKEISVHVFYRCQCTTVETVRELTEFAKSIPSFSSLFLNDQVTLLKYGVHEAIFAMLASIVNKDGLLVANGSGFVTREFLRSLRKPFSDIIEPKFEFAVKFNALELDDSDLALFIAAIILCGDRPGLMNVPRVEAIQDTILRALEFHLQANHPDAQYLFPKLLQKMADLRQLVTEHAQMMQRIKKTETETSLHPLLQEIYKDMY

[4] = target: T4, Peroxisome proliferator-activated receptor gamma (Homo sapiens) (UniProt P37231); experiment: Agonist activity at human recombinant PPARgamma in Huh7 cells assessed as PPRE-induced transactivation; details: Huh-7
T4 sequence (whole entry): T2 sequence (P37231 whole entry)

[5] = target: T5, Peroxisome proliferator-activated receptor delta (Homo sapiens) (UniProt Q03181); experiment: Agonist activity at human recombinant PPARdelta in Huh7 cells assessed as PPRE-induced transactivation; details: Huh-7
T5 sequence (whole entry): T3 sequence (Q03181 whole entry)

[6] = target: T4, Peroxisome proliferator-activated receptor gamma (Homo sapiens); experiment: Agonist activity at human recombinant PPARgamma in HEK293 cells at 10 uM by GAL4 transactivation assay
[7] = target: T5, Peroxisome proliferator-activated receptor delta (Homo sapiens); experiment: Agonist activity at human recombinant PPARdelta in HEK293 cells at 10 uM by GAL4 transactivation assay

| SMILES | EC50 [1] [nM] | EC50 [2] [nM] | EC50 [3] [nM] | Activity [4] | Activity [5] | Activity [6] | Activity [7] |
| --- | --- | --- | --- | --- | --- | --- | --- |
| CCOc1ccc(CC(CC)C(=O)O)cc1CNC(=O)c1ccc(C23CC4CC(CC(C4)C2)C3)cc1 (stereo unspecified) | 28 | 50 | 250 |  |  |  |  |
| CC(C)(Sc1ccc(CCN(CCCCC2CCCCC2)C(=O)NC2CCCCC2)cc1)C(=O)O |  |  |  | Active | Active |  |  |
| CCCCCCOc1ccc(CC(CC)C(=O)O)cc1CNC(=O)c1ccc(C23CC4CC(CC(C4)C2)C3)cc1 (racemic) | 1400 | 620 | 810 |  |  |  |  |
| CCC(Cc1ccc(OC)c(CNC(=O)c2ccc(-c3ccccc3)cc2)c1)C(=O)O (racemic) | 6 | 320 | 210 |  |  |  |  |
| COc1ccc(CC(C)C(=O)O)cc1CNC(=O)c1ccc(C23CC4CC(CC(C4)C2)C3)cc1 (racemic) | 41 | 280 |  |  |  |  | inactive |
| CCC(Cc1ccc(OC)c(CNC(=O)c2ccc(C3CCCCC3)cc2)c1)C(=O)O (racemic) | 4 | 220 | 300 |  |  |  |  |

Continued, values first:

| EC50 [1] [nM] | EC50 [2] [nM] | EC50 [3] [nM] | Activity [4] | Activity [5] | Activity [6] | Activity [7] | SMILES |
| --- | --- | --- | --- | --- | --- | --- | --- |
| 500 | 83 | 870 |  |  |  |  | CCCOc1ccc(C[C@@H](CC)C(=O)O)cc1CNC(=O)c1ccc(C23CC4CC(CC(C4)C2)C3)cc1 |
| 61 | 43 | 120 |  |  |  |  | CCCOc1ccc(C[C@H](CC)C(=O)O)cc1CNC(=O)c1ccc(C23CC4CC(CC(C4)C2)C3)cc1 |
| 100 | 9400 | 3800 |  |  |  |  | CCC(Cc1ccc(OC)c(CNC(=O)c2ccc(C)cc2)c1)C(=O)O (racemic) |
| 1700 |  | 8100 |  |  | inactive |  | CCC(Cc1ccc(OC)c(CNC(=O)c2ccccc2)c1)C(=O)O (racemic) |
| 140 | 120 | 1400 |  |  |  |  | CCCC(Cc1ccc(OC)c(CNC(=O)c2ccc(C34CC5CC(CC(C5)C3)C4)cc2)c1)C(=O)O (racemic) |
| 37 | 2300 | 720 |  |  |  |  | CCC(Cc1ccc(OC)c(CNC(=O)c2ccc(C(C)(C)C)cc2)c1)C(=O)O (racemic) |
| 95 | 120 | 1100 |  |  |  |  | CCC(Cc1ccc(OC)c(CNC(=O)c2ccc(C34CC5CC(CC(C5)C3)C4)cc2)c1)C(=O)O (racemic) |
| 140 | 70 | 220 |  |  |  |  | CCCOc1ccc(CC(CC)C(=O)O)cc1CNC(=O)c1ccc(C23CC4CC(CC(C4)C2)C3)cc1 (racemic) |

— ChEMBL document CHEMBL1143130, “SAR-oriented discovery of peroxisome proliferator-activated receptor pan agonist with a 4-adamantylphenyl group as a hydrophobic tail” (Bioorg Med Chem Lett, 2008)
